Measurements as given in US12472159B2, “Compositions comprising amino acids for use in the prevention and treatment of chemotherapy side effects” (Professional Dietetics S.p.A., priority 2020, dated 2025).

Legend:
HL-1 cardiomyocytes [1] = test: Mitochondrial biogenesis marker mRNA levels by quantitative RT-PCR in HL-1 cardiomyocytes; format: cell-based, mouse; settings: HL-1 cells; for mRNA levels of mitochondrial biogenesis markers (PGC-1α, NRF1, Tfam, cyt c, COX IV): agent alone vs untreated cells, α5 1% w/v or BCAAem 48 h, 1 μM DOX 16 h; for prevention of DOX-induced decrease of mitochondrial biogenesis marker mRNA: supplement 48 h with 1 μM DOX 16 h, vs DOX-treated cells
Procedure: (§1) Rules of the Declaration of Helsinki have been followed. HL-1 cardiomyocytes were obtained from W.C. Claycomb (Millipore Cat #SCC065) and plated in fibronectin/gelatin-coated flasks, grown to 70-80% confluence in Claycomb medium (Sigma-Aldrich) supplemented with 100 μM norepinephrine (from a 10 mM norepinephrine [Sigma-Aldrich] stock solution dissolved in 30 mM L-ascorbic acid [Sigma-Aldrich]), 2 mM L-glutamine, 100 U/ml penicillin, 100 μg/ml streptomycin and 10% Fetal Bovine Serum (FBS, Sigma-Aldrich). MCF-7 human breast cancer cell line (ATCC® HTB-22™) also available from P. Limonta (Pharmacological and Biomolecular Sciences, University of Milan, Milan, Italy) were cultured in pH 7.4 DMEM, containing streptomycin (100 U/ml), penicillin ([…]), and gentamicin ([…]), and supplemented with 10% FBS. Both cell types were treated with […] or α5 for 48 h and 1 μM DOX for 16 h (FIG. 1). […] The cycle number at which the various transcripts were detectable (threshold cycle, CT) was compared to that of TBP, referred to as ΔCT.

HL-1 cardiomyocytes [2] = test: MTT viability assay of HL-1 cardiomyocytes; format: cell-based, mouse; settings: agent alone; 1% α5 48 h or 1 μM DOX 16 h
Procedure: as §1, with “1). HL-1 cell viability was assessed by MTT [3-(4,5-dimethylthiazol-2-yl)-2,5-diphenyltetrazolium bromide] reagent (Sigma, Milan, Italy).” for “1).”, “purple formazan crystals were dissolved in 5% SDS/0.1 M HCl (100 μl/well), and the absorbance was recorded on a microplate reader (ELx800, BioTek Instruments, VT, USA)” for “cycle number”, “a wavelength of 570 nm. Each test” for “which the various transcripts were detectable (threshold cycle, CT)”, “repeated at least four times in quadruplicates.” for “compared to that of TBP, referred to as ΔCT.”

HL-1 cardiomyocytes [3] = test: Klf15, eNOS and Raptor siRNA knockdown in HL-1 cardiomyocytes, RT-PCR and immunoblot; format: cell-based, mouse; settings: HL-1 cells
Procedure: For the study of phospho-proteins, HL-1 cells were treated with 1% α5 for 2 h and 1 μM DOX (Doxo-HCl from Sigma-Aldrich D15D15) for the last 60 min. […] After 24 h transfection, cells were treated with 1% α5 for 24 h and 1 μM DOX for 16 h. Transfection efficacy was determined with siGLO-RISC-free nontargeting siRNA and siRNA uptake by fluorescence detection (absorbance/emission 557/570). Proteins were then extracted for Western blotting analysis.

[4] = system: left ventricle of DOX-treated mice; test: Mitochondrial biogenesis, mass, function and ROS defense genes in left ventricle of DOX-treated mice
Procedure: (§3) Drinking volume, food intake, and body weight were checked twice weekly. At the end of the treatment period, mice were sacrificed by cervical dislocation and hearts quickly removed and freshly used (for oxygen consumption analysis) or frozen in liquid nitrogen and stored at ˜80° C. (for mtDNA, mRNA, and protein level measurement, in addition to citrate synthase activity analysis).
(§4) Quantitative RT-PCRs were performed as previously described [3-7] with the iQ SybrGreenl SuperMix (Bio-Rad; Segrate, Italy) on an iCycler iQ real-time PCR detection system (Bio-Rad). Briefly, RNA was isolated from left ventricle using the RNeasy Tissue Mini Kit (Qiagen) or from HL-1 cells using the RNeasy Mini Kit (Qiagen). cDNA was synthesized using the iScript cDNA Synthesis Kit (Bio-Rad Laboratories).
For mtDNA analysis, total DNA was extracted with a QIAamp DNA Extraction Kit (Qiagen). mtDNA was amplified using primers specific for the mtDNA and normalized to the 18S gene (Table 2) [9]. The mtDNA content was determined using qRT-PCR by measuring the threshold cycle ratio (ΔCT) of the mtDNA gene vs. that of a nuclear encoded gene (18S) in left ventricle of DOX-, α5- or DOX plus α5-treated mice, in addition to control untreated mice [10,11].
The activity was measured spectrophotometrically at 412 nm at 30° C. in left ventricle extracts [12,13].

HL-1 cardiomyocytes [5] = test: Mitochondrial oxidative stress in HL-1 cardiomyocytes (H2O2 release, aconitase, SOD, anti-ROS genes, 8-OHdG); format: cell-based, mouse; settings: HL-1 cells; agent alone vs untreated cells
Procedure: (§2) Rules of the Declaration of Helsinki have been followed. HL-1 cardiomyocytes were obtained from W.C. Claycomb (Millipore Cat #SCC065) and plated in fibronectin/gelatin-coated flasks, grown to 70-80% confluence in Claycomb medium (Sigma-Aldrich) supplemented with 100 μM norepinephrine (from a 10 mM norepinephrine [Sigma-Aldrich] stock solution dissolved in 30 mM L-ascorbic acid [Sigma-Aldrich]), 2 mM L-glutamine, 100 U/ml penicillin, 100 μg/ml streptomycin and 10% Fetal Bovine Serum (FBS, Sigma-Aldrich). MCF-7 human breast cancer cell line (ATCC® HTB-22™) also available from P. Limonta (Pharmacological and Biomolecular Sciences, University of Milan, Milan, Italy) were cultured in pH 7.4 DMEM, containing streptomycin (100 U/ml), penicillin ([…]), and gentamicin ([…]), and supplemented with 10% FBS. Both cell types were treated with […] or α5 for 48 h and 1 μM DOX for 16 h (FIG. 1).
To investigate the mitochondrial oxidative stress, mitochondria were isolated using the Qproteome Mitochondria isolation kit (Qiagen). Mitochondrial H2O2 release was measured in the presence of horseradish peroxidase (HRP), using the Amplex Red Hydrogen Peroxide/Peroxidase Assay kit (Molecular Probes). Fluorometric measures were made using a Fusion Universal Microplate Analyzer (Packard/PerkinElmer) with excitation filter at 550 nm and emission filter at 590 nm. H2O2 production, calculated from a standard curve, was expressed as nmol/min/mg protein as described Moreover, mitochondrial aconitase and SOD activity were measured as previously described. Briefly, the formation of NADPH was followed spectrophotometrically (340 nm) at 25° C. (for aconitase activity), while SOD activity was measured with the Superoxide Dismutase Assay Kit (Calbiochem). […] Finally, the oxidative damage of DNA was measured as a further marker of oxidative stress. […] Quality and quantity of DNA were confirmed by a NanoDrop ND-1000 spectrophotometry analysis. Absorbance of the ELISA reaction product was determined spectrophotometrically using 450 nm as the primary wave.

[6] = system: left ventricle of DOX-treated mice; test: Signaling pathways (eNOS, mTORC1, Sestrin2, KLF15, BCKDH) in left ventricle of mice; format: in vivo, C57BL6/J mice
Procedure: as §3, §4
Protein extracts were obtained from left ventricle with T-PER mammalian protein extraction reagent (Pierce, ThermoScientific, Rockford, USA) or from HL-1 cells in M-PER mammalian protein extraction reagent (Pierce, ThermoScientific, Rockford, USA), as indicated by the manufacturer, in the presence of 1 mM NaVO4, 10 mM NaF and a cocktail of protease inhibitors (Sigma-Aldrich, Milan, Italy). Protein content was determined by the bicinchoninic acid protein assay (BCA, Pierce, Euroclone, Milan, Italy), and 50 of the protein extract was separated by SDS-PAGE under reducing conditions. The separated proteins were then electrophoretically transferred to a nitrocellulose membrane (Bio-Rad Laboratories, Segrate, Italy) [3-8]. Proteins of interest were detected with specific antibodies: anti-COX IV (cytochrome c oxidase subunit IV, Cell Signaling Technology Cat #4844, Euroclone, Milan, Italy), anti-cyt c (cytochrome complex, Cell Signaling Technology Cat #4280), anti-PGC-1α (proliferator-activated receptor γ coactivator 1α, Cell Signaling Technology Cat #2178), anti-phospho-AKT (Ser473) (Cell Signaling Technology Cat #4060), anti-AKT (Cell Signaling Technology Cat #4685), anti-phospho-eNOS (Ser1177) (phospho-endothelial nitric oxide synthase, Cell Signaling Technology Cat #9571), anti-eNOS (Cell Signaling Technology Cat #9572), anti-phospho-S6 (Ser235/236) (phospho-S6, Cell Signaling Technology Cat #4858), anti-S6 (Cell Signaling Technology Cat #2217), anti-phospho-mTOR (Ser2481) (Cell Signaling Technology Cat #2974), anti-mTOR (Cell Signaling Technology Cat #2972), anti-phospho-BCKDH (Ser293) (Abcam Cat #200577), anti-BCKDH (Abcam Cat #138460), and anti-GAPDH (1:1000, Cell Signaling Technology Cat #2118) at 1:1000 dilution each. After the visualization of phospho-eNOS, phospho-AKT, phospho-mTOR, phospho-S6, and anti-phospho-BCKDH the filters were stripped with the Restore™ western blot stripping buffer (Euroclone, Milan, Italy) and further used for the visualization of total eNOS, total AKT, total mTOR, total S6, or total BCKDH. Immunostaining was performed using horseradish peroxidase-conjugated anti-rabbit or anti-mouse immunoglobulin for 1 h at room temperature. The protein was detected using SuperSignal substrate (Pierce, Euroclone, Milan, Italy) and quantified by densitometry with ImageJ image analysis software.

HL-1 cardiomyocytes [7] = test: Signaling pathways (eNOS, S6, Sestrin2, Akt, KLF15, BCKDH) in HL-1 cardiomyocytes; format: cell-based, mouse; settings: HL-1 cells
Procedure: as §2, with “HTB-22TM)” for “HTB-22™)”, “1). […] Lafayette, CO) or siGENOME nontargeting siRNA using Dharmafect 1 transfection reagent. After 24 h transfection, cells were treated with 1% α5 for 24 h and 1 μM DOX for 16 h. Transfection efficacy was determined with siGLO-RISC-free nontargeting siRNA and siRNA uptake by fluorescence detection (absorbance/emission 557/570). Proteins were then extracted for Western blotting analysis.” for “1).”

HL-1 cardiomyocytes [8] = test: Citrate synthase activity in HL-1 cardiomyocytes; format: cell-based, mouse; settings: HL-1 cells; agent alone vs untreated cells
Procedure: as §2

O=C(O)CC(O)C(=O)O (centres unmarked) [malic acid]
mRNA levels of mitochondrial biogenesis markers (PGC-1α, NRF1, Tfam, cyt c, COX IV) (HL-1 cardiomyocytes [1]): unable to prevent the DOX-induced reduction of mitochondrial biogenesis as well as to change the mitochondrial gene expression when supplemented alone | prevention of DOX-induced decrease of mitochondrial biogenesis marker mRNA (HL-1 cardiomyocytes [1]): unable to prevent the DOX-induced reduction of mitochondrial biogenesis

O=C(O)CC(O)(CC(=O)O)C(=O)O [citric acid]
mRNA levels of mitochondrial biogenesis markers (PGC-1α, NRF1, Tfam, cyt c, COX IV) (HL-1 cardiomyocytes [1]): unable to prevent the DOX-induced reduction of mitochondrial biogenesis as well as to change the mitochondrial gene expression when supplemented alone | prevention of DOX-induced decrease of mitochondrial biogenesis marker mRNA (HL-1 cardiomyocytes [1]): unable to prevent the DOX-induced reduction of mitochondrial biogenesis

O=C(O)CCC(=O)O [succinic acid]
mRNA levels of mitochondrial biogenesis markers (PGC-1α, NRF1, Tfam, cyt c, COX IV) (HL-1 cardiomyocytes [1]): unable to prevent the DOX-induced reduction of mitochondrial biogenesis as well as to change the mitochondrial gene expression when supplemented alone | prevention of DOX-induced decrease of mitochondrial biogenesis marker mRNA (HL-1 cardiomyocytes [1]): unable to prevent the DOX-induced reduction of mitochondrial biogenesis

COc1cccc2c1C(=O)c1c(O)c3c(c(O)c1C2=O)C[C@@](O)(C(=O)CO)C[C@@H]3O[C@H]1C[C@H](N)[C@H](O)[C@H](C)O1 [DOX, doxorubicin]
HL-1 cell survival (MTT) (HL-1 cardiomyocytes [2]): DOX-induced death of HL-1 cells | PGC-1α and COX IV protein (HL-1 cardiomyocytes [3]; Klf15 siRNA-transfected or otherwise untreated, DOX exposure): significantly decreased both PGC-1α and COX IV protein | (Ser293)-BCKDH phosphorylation in Klf15 knockdown cells (HL-1 cardiomyocytes [3]; Klf15 siRNA, DOX-treated and untreated): unable to change phosphorylation | expression of ROS defense enzymes (SOD1, SOD2, catalase, GPX1) in left ventricle ([4]; agent alone): augmented the expression of ROS defense enzymes | mRNA levels of mitochondrial biogenesis genes in left ventricle ([4]; agent alone vs control group): reduced | mitochondrial mass and function (mtDNA amount, respiratory proteins particularly COX IV, citrate synthase activity) in left ventricle ([4]; agent alone vs saline-treated): lower | oxygen consumption rate (OCR) of mitochondria isolated from left ventricle ([4]; agent alone, Clark's electrode): decreased OCR | 8-hydroxy-2′-deoxyguanosine (8-OHdG), oxidative DNA damage (HL-1 cardiomyocytes [5]): higher amount | expression of GPX1 and SOD1 genes (HL-1 cardiomyocytes [5]): increased | mitochondrial H2O2 release (HL-1 cardiomyocytes [5]): markedly increased | Klf15 mRNA levels in left ventricle ([6]; agent alone): significantly reduced | Ser2481 mTOR phosphorylation in heart ([6]; agent alone): reduced | Sestrin2 mRNA in left ventricle ([6]; agent alone): markedly increased | eNOS activity, (Ser1177)phospho-eNOS to total eNOS ratio, in left ventricle ([6]; agent alone): only partially eNOS activity | eNOS expression in left ventricle ([6]; agent alone): decreased eNOS expression | (Ser235/236)phospho-S6 to total S6 ratio in left ventricle ([6]; agent alone vs saline): decreased | (Ser293)-BCKDH phosphorylation in left ventricle ([6]; agent alone vs saline-treated): unchanged | (Ser293)-BCKDH phosphorylation (p-BCKDH) (HL-1 cardiomyocytes [7]; DOX vs untreated, α5 with or without DOX): not different | (Ser235/236)-S6 phosphorylation (HL-1 cardiomyocytes [7]; agent alone): markedly decreased | (Ser 473)-Akt phosphorylation (HL-1 cardiomyocytes [7]; agent alone): markedly reduced Akt phosphorylation | KLF15 expression (mRNA and protein) (HL-1 cardiomyocytes [7]; agent alone): reduced both at mRNA and protein levels | Sestrin2 expression (HL-1 cardiomyocytes [7]; agent alone): markedly increased | (Ser1177)-eNOS phosphorylation (HL-1 cardiomyocytes [7]; agent alone, 1 μM DOX): markedly reduced | eNOS gene expression (HL-1 cardiomyocytes [7]; agent alone, 1 μM DOX or α5 1% w/v): only slightly decreased | citrate synthase activity (HL-1 cardiomyocytes [8]): reduction of citrate synthase activity | mRNA levels of mitochondrial biogenesis markers (PGC-1α, NRF1, Tfam, cyt c, COX IV) (HL-1 cardiomyocytes [1]): decreased
